US9902736B2, “1-oxo/acylation-14-acylated oridonin derivative, preparation method therefor and application thereof” (HANGZHOU BENSHENG PHARMACEUTICAL CO., LTD., priority 2012, dated 2018)
≈ marks a conversion by molar mass, not a printed value.

Key:
Kasumi-1 = test: Leukemia cell growth inhibition, MTT, 72 h; assay type: cell-based; conditions: Homo sapiens
Description: (§1) Leukemia cell lines: leukemia cell lines: K562/adr (drug-resistant, chronic myeloid leukemia, CML), NB4 (acute promyelocytic leukemia, AML), Kasumi-1 (acute myeloid leukemia M2 type, AML-M2), Jurkat (acute lymphoblastic leukemia, ALL), all of which were donated by Cancer Research Institute of Zhejiang University, China; and H9 (acute lymphoblastic leukemia, ALL), which was purchased from China Center for Type Culture Collection.
(§2) 6000 well-growing leukemia cells were obtained and inoculated into wells of a 96-well cell culture plate. […] On the next day, the 1-oxo/acylated-14-acylated oridonin derivatives of different concentrations were added and mixed uniformly. The plate was placed in a carbon dioxide cell incubator (5% CO2) at 37° C. and was incubated for 72 hours. Then the viable cell concentration was determined by MTT method.

K562/ADR = test: Leukemia cell growth inhibition, MTT, 72 h; assay type: cell-based; conditions: Homo sapiens
Description: as §1, §2

RPMI 8226 = test: Multiple myeloma cell growth inhibition, MTT, 72 h; assay type: cell-based; conditions: Homo sapiens
Experimental: Multiple myeloma cell lines: RPMI8226 (multiple myeloma), purchased from Fuxiang Bio-tech Co. Ltd., Shanghai, China.
as §2, with “well-growing” for “well-growing leukemia”, “and” for “and was”

Hela = test: Solid tumor cell growth inhibition, MTT, 72 h; assay type: cell-based, human; conditions: Homo sapiens, HeLa; 72 h, MTT
Experimental: (§3) 6000 well-growing human solid tumor cells were obtained and inoculated into wells of a 96-well cell culture plate. The culture medium was DMEM High Glucose cell culture medium containing 10% fetal bovine serum. The plate was placed in a carbon dioxide cell incubator (5% CO2) at 37° C. and incubated for 24 hours. After added with 1-oxo/acylated-14-acylated oridonin derivatives of different concentration and mixed uniformly, the plate was placed in a carbon dioxide cell incubator (5% CO2) at 37° C. and incubated for 72 hours. Then the viable cell concentration was determined by MTT method.

CNE = test: Solid tumor cell growth inhibition, MTT, 72 h; assay type: cell-based, human; conditions: Homo sapiens, CNE; 72 h, MTT
Experimental: as §3

Hep-2 = test: Solid tumor cell growth inhibition, MTT, 72 h; assay type: cell-based, human; conditions: Homo sapiens, HEp-2; 72 h, MTT
Experimental: as §3

MGC-803 = test: Solid tumor cell growth inhibition, MTT, 72 h; assay type: cell-based, human; conditions: Homo sapiens, MGC-803; 72 h, MTT
Experimental: as §3

NB4 = test: Leukemia cell growth inhibition, MTT, 72 h; assay type: cell-based, human; conditions: Homo sapiens, NB-4; 72 h, MTT
Description: as §1, §2

H9 = test: Leukemia cell growth inhibition, MTT, 72 h; assay type: cell-based, human; conditions: Homo sapiens, H9; 72 h, MTT
Description: as §1, §2

Jurkat = test: Leukemia cell growth inhibition, MTT, 72 h; assay type: cell-based, human; conditions: Homo sapiens, Jurkat; 72 h, MTT
Description: as §1, §2

RKO = test: Solid tumor cell growth inhibition, MTT, 72 h; assay type: cell-based; conditions: Homo sapiens
Experimental: as §3

U87-MG = test: Solid tumor cell growth inhibition, MTT, 72 h; assay type: cell-based; conditions: Homo sapiens, U-87 MG
Experimental: as §3

SK-OV-3 = test: Solid tumor cell growth inhibition, MTT, 72 h; assay type: cell-based; conditions: Homo sapiens, SK-OV-3, 72 h, MTT; for IC50: read-out: IC50 SK-OV-3; for IC90: read-out: IC90 SK-OV-3
Experimental: as §3

PC-3 = test: Solid tumor cell growth inhibition, MTT, 72 h; assay type: cell-based; conditions: Homo sapiens
Experimental: as §3

A549 = test: Solid tumor cell growth inhibition, MTT, 72 h; assay type: cell-based; conditions: Homo sapiens
Experimental: as §3

Becap-37 = test: Solid tumor cell growth inhibition, MTT, 72 h; assay type: cell-based; conditions: Homo sapiens
Experimental: as §3

CaEs-17 = test: Solid tumor cell growth inhibition, MTT, 72 h; assay type: cell-based; conditions: Homo sapiens, CaEs17
Experimental: as §3

Hep G2 = test: Solid tumor cell growth inhibition, MTT, 72 h; assay type: cell-based; conditions: Homo sapiens, HepG2
Experimental: as §3

PANC-1 = test: Solid tumor cell growth inhibition, MTT, 72 h; assay type: cell-based; conditions: Homo sapiens
Experimental: as §3

MG-63 = test: Solid tumor cell growth inhibition, MTT, 72 h; assay type: cell-based; conditions: Homo sapiens
Experimental: as §3

C=C1C(=O)[C@]23[C@H](OC(=O)c4cccnc4)[C@H]1CC[C@H]2[C@@]12CO[C@@]3(O)[C@@H](O)[C@@H]1C(C)(C)CCC2=O [BS-OR-011]
IC50 (Kasumi-1): 1.03 mg/L (≈ 2.2 µM)
IC90 (Kasumi-1): 1.94 mg/L (≈ 4.15 µM)
IC50 (K562/ADR): 0.75 mg/L (≈ 1.6 µM)
IC90 (K562/ADR): 2.35 mg/L (≈ 5.03 µM)
IC50 (RPMI 8226): 0.9 mg/L (≈ 1.93 µM)
IC90 (RPMI 8226): 1.93 mg/L (≈ 4.13 µM)
IC50 (Hela): 2.53 mg/L (≈ 5.41 µM)
IC90 (Hela): 6.79 mg/L (≈ 14.5 µM)
IC50 (CNE): 2.26 mg/L (≈ 4.83 µM)
IC90 (CNE): 8.1 mg/L (≈ 17.3 µM)
IC50 (Hep-2): 3.8 mg/L (≈ 8.13 µM)
IC90 (Hep-2): 14.1 mg/L (≈ 30.1 µM)
IC50 (MGC-803): 1.6 mg/L (≈ 3.42 µM)
IC90 (MGC-803): 11.9 mg/L (≈ 25.5 µM)
IC50 (NB4): 0.27 mg/L (≈ 0.578 µM)
IC90 (NB4): 0.9 mg/L (≈ 1.93 µM)
IC50 (H9): 0.56 mg/L (≈ 1.2 µM)
IC90 (H9): 1.23 mg/L (≈ 2.63 µM)
IC50 (Jurkat): 0.87 mg/L (≈ 1.86 µM)
IC90 (Jurkat): 5.24 mg/L (≈ 11.2 µM)
IC50 (RKO): 0.59 mg/L (≈ 1.26 µM)
IC90 (RKO): 1.44 mg/L (≈ 3.08 µM)
IC50 (U87-MG): 1.17 mg/L (≈ 2.5 µM)
IC90 (U87-MG): 3.29 mg/L (≈ 7.04 µM)
IC50 (SK-OV-3): 2.53 mg/L (≈ 5.41 µM)
IC90 (SK-OV-3): 4.87 mg/L (≈ 10.4 µM)
IC50 (PC-3): 2.53 mg/L (≈ 5.41 µM)
IC90 (PC-3): 4.87 mg/L (≈ 10.4 µM)
IC50 (A549): 5.58 mg/L (≈ 11.9 µM)
IC90 (A549): 9.47 mg/L (≈ 20.3 µM)
IC50 (Becap-37): 1.96 mg/L (≈ 4.19 µM)
IC90 (Becap-37): 6.11 mg/L (≈ 13.1 µM)
IC50 (CaEs-17): 1.41 mg/L (≈ 3.02 µM)
IC90 (CaEs-17): 5.24 mg/L (≈ 11.2 µM)
IC50 (Hep G2): 2.53 mg/L (≈ 5.41 µM)
IC90 (Hep G2): 12.6 mg/L (≈ 27 µM)
IC50 (PANC-1): 2.99 mg/L (≈ 6.4 µM)
IC90 (PANC-1): 7.92 mg/L (≈ 16.9 µM)
IC50 (MG-63): 0.74 mg/L (≈ 1.58 µM)
IC90 (MG-63): 3.01 mg/L (≈ 6.44 µM)

C=C1C(=O)[C@]23[C@H](OC(=O)/C=C/c4ccccc4)[C@H]1CC[C@H]2[C@@]12CO[C@@]3(O)[C@@H](O)[C@@H]1C(C)(C)CC[C@@H]2OC(C)=O [BS-OR-094]
IC50 (Kasumi-1): 0.72 mg/L (≈ 1.34 µM)
IC90 (Kasumi-1): 1.72 mg/L (≈ 3.21 µM)
IC50 (K562/ADR): 0.7 mg/L (≈ 1.3 µM)
IC90 (K562/ADR): 2.17 mg/L (≈ 4.04 µM)
IC50 (RPMI 8226): 0.49 mg/L (≈ 0.913 µM)
IC90 (RPMI 8226): 1.75 mg/L (≈ 3.26 µM)
IC50 (Hela): 1.54 mg/L (≈ 2.87 µM)
IC90 (Hela): 4.45 mg/L (≈ 8.29 µM)
IC50 (CNE): 1.32 mg/L (≈ 2.46 µM)
IC90 (CNE): 5.04 mg/L (≈ 9.39 µM)
IC50 (Hep-2): 1.68 mg/L (≈ 3.13 µM)
IC90 (Hep-2): 7.46 mg/L (≈ 13.9 µM)
IC50 (MGC-803): 1.39 mg/L (≈ 2.59 µM)
IC90 (MGC-803): 12.1 mg/L (≈ 22.5 µM)
IC50 (NB4): 0.1 mg/L (≈ 0.186 µM)
IC90 (NB4): 0.49 mg/L (≈ 0.913 µM)
IC50 (H9): 0.19 mg/L (≈ 0.354 µM)
IC90 (H9): 0.49 mg/L (≈ 0.913 µM)
IC50 (Jurkat): 0.65 mg/L (≈ 1.21 µM)
IC90 (Jurkat): 2.68 mg/L (≈ 4.99 µM)
IC50 (RKO): 0.38 mg/L (≈ 0.708 µM)
IC90 (RKO): 0.75 mg/L (≈ 1.4 µM)
IC50 (U87-MG): 0.6 mg/L (≈ 1.12 µM)
IC90 (U87-MG): 1.86 mg/L (≈ 3.47 µM)
IC50 (SK-OV-3): 1.66 mg/L (≈ 3.09 µM)
IC90 (SK-OV-3): 4.52 mg/L (≈ 8.42 µM)
IC50 (PC-3): 1.66 mg/L (≈ 3.09 µM)
IC90 (PC-3): 4.52 mg/L (≈ 8.42 µM)
IC50 (A549): 2.87 mg/L (≈ 5.35 µM)
IC90 (A549): 9.95 mg/L (≈ 18.5 µM)
IC50 (Becap-37): 1.15 mg/L (≈ 2.14 µM)
IC90 (Becap-37): 3.31 mg/L (≈ 6.17 µM)
IC50 (CaEs-17): 0.94 mg/L (≈ 1.75 µM)
IC90 (CaEs-17): 6.26 mg/L (≈ 11.7 µM)
IC50 (Hep G2): 1.42 mg/L (≈ 2.65 µM)
IC90 (Hep G2): 7.47 mg/L (≈ 13.9 µM)
IC50 (PANC-1): 1.82 mg/L (≈ 3.39 µM)
IC90 (PANC-1): 9.91 mg/L (≈ 18.5 µM)
IC50 (MG-63): 0.47 mg/L (≈ 0.876 µM)
IC90 (MG-63): 1 mg/L (≈ 1.86 µM)

C=C1C(=O)[C@]23[C@H](OC(=O)c4cccs4)[C@H]1CC[C@H]2[C@@]12CO[C@@]3(O)[C@@H](O)[C@@H]1C(C)(C)CCC2=O [BS-OR-007]
IC50 (Kasumi-1): 0.71 mg/L (≈ 1.5 µM)
IC90 (Kasumi-1): 1.76 mg/L (≈ 3.72 µM)
IC50 (K562/ADR): 0.47 mg/L (≈ 0.995 µM)
IC90 (K562/ADR): 1.86 mg/L (≈ 3.94 µM)
IC50 (RPMI 8226): 0.37 mg/L (≈ 0.783 µM)
IC90 (RPMI 8226): 2.59 mg/L (≈ 5.48 µM)
IC50 (Hela): 1.64 mg/L (≈ 3.47 µM)
IC90 (Hela): 4.92 mg/L (≈ 10.4 µM)
IC50 (CNE): 1.33 mg/L (≈ 2.81 µM)
IC90 (CNE): 5.16 mg/L (≈ 10.9 µM)
IC50 (Hep-2): 1.76 mg/L (≈ 3.72 µM)
IC90 (Hep-2): 9.2 mg/L (≈ 19.5 µM)
IC50 (MGC-803): 0.95 mg/L (≈ 2.01 µM)
IC90 (MGC-803): 9.79 mg/L (≈ 20.7 µM)
IC50 (NB4): 0.08 mg/L (≈ 0.169 µM)
IC90 (NB4): 0.47 mg/L (≈ 0.995 µM)
IC50 (H9): 0.41 mg/L (≈ 0.868 µM)
IC90 (H9): 0.92 mg/L (≈ 1.95 µM)
IC50 (Jurkat): 0.71 mg/L (≈ 1.5 µM)
IC90 (Jurkat): 4.45 mg/L (≈ 9.42 µM)
IC50 (RKO): 0.43 mg/L (≈ 0.91 µM)
IC90 (RKO): 0.95 mg/L (≈ 2.01 µM)
IC50 (U87-MG): 0.78 mg/L (≈ 1.65 µM)
IC90 (U87-MG): 3.21 mg/L (≈ 6.79 µM)
IC50 (SK-OV-3): 1.69 mg/L (≈ 3.58 µM)
IC90 (SK-OV-3): 4.6 mg/L (≈ 9.73 µM)
IC50 (PC-3): 1.69 mg/L (≈ 3.58 µM)
IC90 (PC-3): 4.6 mg/L (≈ 9.73 µM)
IC50 (A549): 2.13 mg/L (≈ 4.51 µM)
IC90 (A549): 5.34 mg/L (≈ 11.3 µM)
IC50 (Becap-37): 1.02 mg/L (≈ 2.16 µM)
IC90 (Becap-37): 3.8 mg/L (≈ 8.04 µM)
IC50 (CaEs-17): 0.93 mg/L (≈ 1.97 µM)
IC90 (CaEs-17): 5.32 mg/L (≈ 11.3 µM)
IC50 (Hep G2): 1.54 mg/L (≈ 3.26 µM)
IC90 (Hep G2): 10.8 mg/L (≈ 22.9 µM)
IC50 (PANC-1): 1.63 mg/L (≈ 3.45 µM)
IC90 (PANC-1): 8.55 mg/L (≈ 18.1 µM)
IC50 (MG-63): 0.42 mg/L (≈ 0.889 µM)
IC90 (MG-63): 0.96 mg/L (≈ 2.03 µM)
